Assays:
[1] = Pharmacokinetic testing in mice after intragastric administration; type: in vivo; conditions: ICR mice; for area under the curve (in words) / pharmacokinetic properties (in words) / plasma concentration (in words): oral 10 mg/kg, conclusion; for AUC(0-inf) / half-life / Cmax: male, mouse, oral administration 10 mg/kg, plasma; for AUC(0-inf): read-out: Area under the curve AUC0-∞; for half-life: read-out: Half-life period T1/2 (converted); for Cmax: read-out: Plasma concentration Cmax
Procedure: ICR mice were taken as test animals, and intragastrically administered with a control compound AMG650 and compounds 47 and 53 of the present invention, and then drug concentrations in plasma at different moments were determined by an LC/MS/MS method, so as to study pharmacokinetic characteristics of the compounds of the present invention in the mice.
Control compound AMG650, and Compounds 47 and 53.
ICR mice, male, 20-22 g, purchased from Vital River Laboratory Animal Technology Co., Ltd.
A proper amount of to-be-tested compound was weighed, proper amounts of DMA, 30% HS-15 and Saline were added in sequence, and the mixture was well mixed by ultrasonic vortex to prepare 1 mg/mL drug preparations respectively, wherein […]: 30% HS-15: Saline=5: 5: 90 (v: v: v).
ICR mice in each to-be-tested compound injection group (9 mice in each group) were fasted overnight and then intragastrically administered with the compound (PO, an administration dosage of the compound was 10 mg/kg and an administration volume of the compound was 10 mL/kg), and were fed 4 hours after administration.
0.25 hours, 0.5 hours, 1 hour, 2 hours, 4 hours, 6 hours, 8 hours and 24 hours before and after administration, about […] of blood was collected through an orbit, and a complete blood sample was placed in an EDTA-K2-containing anticoagulation tube. The collected blood samples were placed on ice, and plasma was centrifugally separated (centrifugation conditions: 1500 g, 10 minutes). The collected plasma was stored at -40°C - -20°C before analysis.
A content of the to-be-tested compound in the plasma of the mice after intragastric administration was determined by LC-MS/MS.

recombinant human KIF18A = biological target: T1, recombinant human KIF18A (Homo sapiens, UniProt Q8NI77); assay: Inhibition of KIF18A enzyme activity (ADP-Glo assay); type: biochemical; conditions: recombinant human KIF18A 100 nM, ATP 60 µM, tubulin, paclitaxel; read-out: IC50
T1 construct: purchased GenScript
T1 sequence (Q8NI77 whole entry): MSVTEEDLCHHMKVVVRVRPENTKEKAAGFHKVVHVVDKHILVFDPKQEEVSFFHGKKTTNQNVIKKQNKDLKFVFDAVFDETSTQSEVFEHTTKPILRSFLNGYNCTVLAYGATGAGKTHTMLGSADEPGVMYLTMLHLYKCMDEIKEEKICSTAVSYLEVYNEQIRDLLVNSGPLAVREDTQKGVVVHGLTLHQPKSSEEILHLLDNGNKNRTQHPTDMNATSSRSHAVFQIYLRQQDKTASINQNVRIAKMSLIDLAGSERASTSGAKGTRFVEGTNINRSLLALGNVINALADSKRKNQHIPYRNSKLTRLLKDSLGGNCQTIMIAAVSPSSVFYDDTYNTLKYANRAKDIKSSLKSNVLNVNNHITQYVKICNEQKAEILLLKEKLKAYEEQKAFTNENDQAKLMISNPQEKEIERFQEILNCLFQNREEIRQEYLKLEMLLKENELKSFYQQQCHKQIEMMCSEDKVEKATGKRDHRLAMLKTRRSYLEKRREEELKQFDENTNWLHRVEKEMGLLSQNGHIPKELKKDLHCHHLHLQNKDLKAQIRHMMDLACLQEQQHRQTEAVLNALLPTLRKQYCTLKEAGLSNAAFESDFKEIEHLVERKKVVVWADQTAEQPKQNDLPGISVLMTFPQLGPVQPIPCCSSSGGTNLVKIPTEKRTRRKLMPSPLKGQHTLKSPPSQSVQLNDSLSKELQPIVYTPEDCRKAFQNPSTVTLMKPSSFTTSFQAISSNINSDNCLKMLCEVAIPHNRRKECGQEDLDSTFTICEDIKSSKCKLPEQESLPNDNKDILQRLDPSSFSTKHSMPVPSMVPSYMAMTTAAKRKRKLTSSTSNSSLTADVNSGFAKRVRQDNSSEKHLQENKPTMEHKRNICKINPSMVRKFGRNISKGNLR
T1 sequence (P68363 whole entry partner): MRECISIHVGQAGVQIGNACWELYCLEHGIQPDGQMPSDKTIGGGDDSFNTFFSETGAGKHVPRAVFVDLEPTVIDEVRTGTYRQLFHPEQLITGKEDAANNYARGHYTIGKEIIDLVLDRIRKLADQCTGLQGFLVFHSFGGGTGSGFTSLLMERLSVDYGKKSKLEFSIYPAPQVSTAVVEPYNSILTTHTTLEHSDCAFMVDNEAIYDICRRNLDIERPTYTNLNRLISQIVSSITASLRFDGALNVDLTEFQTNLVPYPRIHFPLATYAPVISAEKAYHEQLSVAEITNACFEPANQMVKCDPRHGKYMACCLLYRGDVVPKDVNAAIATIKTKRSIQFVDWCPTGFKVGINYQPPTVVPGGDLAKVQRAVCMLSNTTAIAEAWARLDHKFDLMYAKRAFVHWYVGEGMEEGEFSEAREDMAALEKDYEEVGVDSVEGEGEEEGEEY
T1 sequence (Q9BVA1 whole entry partner): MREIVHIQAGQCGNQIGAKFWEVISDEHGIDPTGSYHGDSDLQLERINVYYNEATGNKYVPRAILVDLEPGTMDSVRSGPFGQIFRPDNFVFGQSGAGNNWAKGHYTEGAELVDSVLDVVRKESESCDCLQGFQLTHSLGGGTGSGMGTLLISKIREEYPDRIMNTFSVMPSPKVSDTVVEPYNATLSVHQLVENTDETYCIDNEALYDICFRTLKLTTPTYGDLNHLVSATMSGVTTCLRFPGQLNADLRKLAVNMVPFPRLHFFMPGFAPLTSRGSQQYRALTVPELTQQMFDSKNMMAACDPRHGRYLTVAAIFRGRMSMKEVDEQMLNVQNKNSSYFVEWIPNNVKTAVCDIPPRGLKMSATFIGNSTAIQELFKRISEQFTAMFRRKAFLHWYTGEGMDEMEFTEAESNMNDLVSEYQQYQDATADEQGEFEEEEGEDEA

OVCAR-3 cells = assay: Inhibition of OVCAR-3 cell proliferation (CellTiter-Glo cell viability); type: cell-based; conditions: Homo sapiens; OVCAR-3 cells (TP53 R248Q mutation), 72 hours culture with compound; read-out: IC50
In short: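 OVCAR-3 cells (TP53 R248Q) in RPMI 1640 with 10% FBS were seeded at 1000 cells/well, grown overnight, then exposed to compound (final 1000 nM–0.015 nM) for 72 h at 37°C, 5% CO2. Viability was read by CellTiter-Glo luminescence. IC50 came from nonlinear regression of inhibition relative to 0.3% DMSO control.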

SMILES	area under the curve (in words) [1]	pharmacokinetic properties (in words) [1]	plasma concentration (in words) [1]	AUC(0-inf) [1] [ng·h/mL]	half-life [1] [h]	Cmax [1] [ng/mL]	IC50 (recombinant human KIF18A) [nM]	IC50 (OVCAR-3 cells) [nM]
CCS(=O)(=O)Nc1ccc(C(=O)Nc2ccc(-c3ncn(C)n3)c(OCC(F)(F)F)c2)c(N2CCC3(CC2)CC3)c1 [Example 47, 4-(ethylsulfonamido)-N-(4-(1-methyl-1H-1,2,4-triazol-3-yl)-3-(2,2,2-trifluoroethoxy)pheny 1)-2-(6-azaspiro[2.5]octan-6-yl)benzamide]	large area under the curve	good pharmacokinetic properties	high plasma concentration	44100	5.45	3500	155	5.8
CCS(=O)(=O)Nc1ccc(C(=O)Nc2ccc(-c3ncccn3)c(OCC(F)(F)F)c2)c(N2CCC3(CC2)CC3)c1 [Example 53, 4-(ethylsulfonamido)-N-(4-(pyrimidin-2-yl)-3-(2,2,2-trifluoroethoxy)phenyl)-2-(6-azaspiro[2.5]octan-6-yl)benzamide]	large area under the curve	good pharmacokinetic properties	high plasma concentration	83700	12.1	5790	142	9.5
